In the supplement of paper PMC4862054:
Where “and” joins values, the source holds several entries; their conditions need not be identical. Identical values can stand only once.

Experiments:
Experiment in all cases: normalised viability (% of control), CellTiter-Blue; higher = more viable cells (about 100 = DMSO control)
Conditions in all cases: incubation time: 72 h
[1] = system: HDQ-P1
Method: (§1)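 DSRT, CellTiter-Blue viability, 72 h incubation. Signal is normalised to DMSO and benzethonium chloride controls. Value is the normalised response at dose 8.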

[2] = system: MDA-MB-453
Method: as §1

[3] = system: DU-4475
Method: as §1

[4] = system: CAL-148
Method: as §1

[5] = system: CAL-85-1
Method: as §1

[6] = system: CAL-51
Method: as §1

[7] = system: MDA-MB-453; remark: listed apart in the source
Method: (§2)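 DSRT, CellTiter-Blue viability, 72 h incubation. Signal is normalised to DMSO and benzethonium chloride controls. Value is the normalised response at dose 6.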

[8] = system: DU-4475; remark: listed apart in the source
Method: as §2

[9] = system: CAL-148; remark: listed apart in the source
Method: as §2

[10] = system: CAL-85-1; remark: listed apart in the source
Method: as §2

[11] = system: CAL-51; remark: listed apart in the source
Method: as §2

[12] = system: MDA-MB-453; remark: listed apart in the source
Method: (§3)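 DSRT, CellTiter-Blue viability, 72 h incubation. Signal is normalised to DMSO and benzethonium chloride controls. Value is the normalised response at dose 9.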

[13] = system: DU-4475; remark: listed apart in the source
Method: as §3

[14] = system: CAL-148; remark: listed apart in the source
Method: as §3

[15] = system: CAL-85-1; remark: listed apart in the source
Method: as §3

[16] = system: CAL-51; remark: listed apart in the source
Method: as §3

## O=c1[nH]cc(F)c(=O)[nH]1 [Fluorouracil] (3000 nM)
[1]
  normalised viability: 87.8%
[2]
  normalised viability: 85.7%
[3]
  normalised viability: 81.6%
[4]
  normalised viability: 65.6%
[5]
  normalised viability: 62.6%
[6]
  normalised viability: 87.9%

## C[C@@H]1C=C2C(=O)O[C@@H]3CC[C@H](C1)[C@]23O [Galiellalactone] (15000 nM)
[1]
  normalised viability: 75.3%
[2]
  normalised viability: 20.3%
[3]
  normalised viability: 126%
[4]
  normalised viability: 52.8%
[5]
  normalised viability: 14.1%
[6]
  normalised viability: 124%

## COC1=C2C[C@@H](C)C[C@H](OC)[C@H](O)[C@@H](C)/C=C(\C)[C@H](OC(N)=O)[C@@H](OC)/C=C\C=C(/C)C(=O)NC(=CC1=O)C2=O [Geldanamycin] (3000 nM)
[1]
  normalised viability: 16.7%
[2]
  normalised viability: 8.03%
[3]
  normalised viability: -0.3%
[4]
  normalised viability: 10.8%
[5]
  normalised viability: 11.6%
[6]
  normalised viability: 8.15%

## O=P(O)(NCCCl)NCCCl [Ifosfamide mustard] (3000 nM)
[1]
  normalised viability: 106%
[2]
  normalised viability: 114%
[3]
  normalised viability: 104%
[4]
  normalised viability: 100%
[5]
  normalised viability: 96.5%
[6]
  normalised viability: 108%

## CS(=O)(=O)CCNCc1ccc(-c2ccc3ncnc(Nc4ccc(OCc5cccc(F)c5)c(Cl)c4)c3c2)o1 [Lapatinib] (300 nM)
[7]
  normalised viability: 42.9% and 43.1%
[8]
  normalised viability: 87.4% and 108%
[9]
  normalised viability: 87.1% and 91.6%
[10]
  normalised viability: 89.5% and 86.2%
[11]
  normalised viability: 112% and 98.5%

## CS(=O)(=O)CCNCc1ccc(-c2ccc3ncnc(Nc4ccc(OCc5cccc(F)c5)c(Cl)c4)c3c2)o1 [Lapatinib] (3000 nM)
[1]
  normalised viability: 84.5% and 104%
[2]
  normalised viability: 33.4% and 38.4%
[3]
  normalised viability: 117% and 105%
[4]
  normalised viability: 80.7% and 87.1%
[5]
  normalised viability: 52.1% and 54.6%
[6]
  normalised viability: 107% and 96.5%

## CS(=O)(=O)CCNCc1ccc(-c2ccc3ncnc(Nc4ccc(OCc5cccc(F)c5)c(Cl)c4)c3c2)o1 [Lapatinib] (10000 nM)
[12]
  normalised viability: 20.9% and 28.7%
[13]
  normalised viability: 117% and 99.2%
[14]
  normalised viability: 60.4% and 65.6%
[15]
  normalised viability: 30% and 39.3%
[16]
  normalised viability: 90% and 94.5%

## Cn1cnc2c(F)c(Nc3ccc(Br)cc3F)c(C(=O)NOCCO)cc21 [MEK-162] (300 nM)
[1]
  normalised viability: 95.6%
[2]
  normalised viability: 136%
[3]
  normalised viability: 4.15%
[4]
  normalised viability: 87.1%
[5]
  normalised viability: 86.7%
[6]
  normalised viability: 90%

## CCOc1cc2ncc(C#N)c(Nc3ccc(OCc4ccccn4)c(Cl)c3)c2cc1NC(=O)/C=C/CN(C)C [Neratinib] (300 nM)
[1]
  normalised viability: 122%
[2]
  normalised viability: 79.9%
[3]
  normalised viability: 87.2%
[4]
  normalised viability: 101%
[5]
  normalised viability: 121%
[6]
  normalised viability: 88%

## COc1ccc(C2=N[C@@H](c3ccc(Cl)cc3)[C@@H](c3ccc(Cl)cc3)N2C(=O)N2CCNC(=O)C2)c(OC(C)C)c1 [Nutlin-3] (3000 nM)
[1]
  normalised viability: 120%
[2]
  normalised viability: 83.9%
[3]
  normalised viability: 67.5%
[4]
  normalised viability: 72.6%
[5]
  normalised viability: 101%
[6]
  normalised viability: 73%

## COC1=CC(c2cc3ccccc3[nH]2)=N/C1=C\c1[nH]c(C)cc1C [Obatoclax] (3000 nM)
[1]
  normalised viability: 39.3%
[2]
  normalised viability: 33.4%
[3]
  normalised viability: 78.5%
[4]
  normalised viability: 59.6%
[5]
  normalised viability: 31.2%
[6]
  normalised viability: 38.5%

## COC(=O)C[C@](O)(CCCC(C)(C)O)C(=O)O[C@@H]1C(OC)=C[C@]23CCCN2CCc2cc4c(cc2[C@H]13)OCO4 [Omacetaxine mepesuccinate] (3000 nM)
[1]
  normalised viability: 13.4%
[2]
  normalised viability: 5.64%
[3]
  normalised viability: 3.79%
[4]
  normalised viability: 5.63%
[5]
  normalised viability: 2%
[6]
  normalised viability: 5.99%

## CC(=O)O[C@H]1C(=O)[C@@]2(C)[C@H]([C@H](OC(=O)c3ccccc3)[C@]3(O)C[C@H](OC(=O)[C@H](O)[C@@H](NC(=O)c4ccccc4)c4ccccc4)C(C)=C1C3(C)C)[C@]1(OC(C)=O)CO[C@@H]1C[C@@H]2O [Paclitaxel] (300 nM)
[1]
  normalised viability: 26.6%
[2]
  normalised viability: 24.7%
[3]
  normalised viability: 16.9%
[4]
  normalised viability: 16.1%
[5]
  normalised viability: 25.5%
[6]
  normalised viability: 20.6%

## CC(C)(C)c1cc(NC(=O)Nc2ccc(-c3cn4c(n3)sc3cc(OCCN5CCOCC5)ccc34)cc2)no1 [Quizartinib] (300 nM)
[1]
  normalised viability: 103%
[2]
  normalised viability: 110%
[3]
  normalised viability: 98.5%
[4]
  normalised viability: 102%
[5]
  normalised viability: 106%
[6]
  normalised viability: 102%

## COc1cc(Nc2ncc(F)c(Nc3ccc4c(n3)NC(=O)C(C)(C)O4)n2)cc(OC)c1OC [R406] (3000 nM)
[1]
  normalised viability: 98.3%
[2]
  normalised viability: 110%
[3]
  normalised viability: 92.6%
[4]
  normalised viability: 105%
[5]
  normalised viability: 67.9%
[6]
  normalised viability: 109%

## O=C(c1ccc(OCCN2CCCCC2)cc1)c1c(-c2ccc(O)cc2)sc2cc(O)ccc12 [Raloxifene] (3000 nM)
[1]
  normalised viability: 89.1%
[2]
  normalised viability: 91.9%
[3]
  normalised viability: 121%
[4]
  normalised viability: 109%
[5]
  normalised viability: 94.3%
[6]
  normalised viability: 101%

## Cn1c(=O)c(F)c(Nc2ccc(I)cc2F)c2c(=O)n(C[C@@H](O)CO)cnc21 [TAK-733] (300 nM)
[1]
  normalised viability: 63.6%
[2]
  normalised viability: 70.8%
[3]
  normalised viability: 0.88%
[4]
  normalised viability: 77.9%
[5]
  normalised viability: 53.5%
[6]
  normalised viability: 76.7%

## CCS(=O)(=O)c1cccc(-c2cc(C(=O)NC3CCN(C)CC3)c(C)c3[nH]c4ncc(C)cc4c23)c1 [TAK-901] (300 nM)
[1]
  normalised viability: 49.2%
[2]
  normalised viability: 60%
[3]
  normalised viability: 76.5%
[4]
  normalised viability: 74%
[5]
  normalised viability: 53.2%
[6]
  normalised viability: 42.5%

## c1ccc(C2CN3CCSC3=N2)cc1 (stereo not drawn) [Tetramisole] (3000 nM)
[1]
  normalised viability: 101%
[2]
  normalised viability: 116%
[3]
  normalised viability: 95.4%
[4]
  normalised viability: 109%
[5]
  normalised viability: 93.5%
[6]
  normalised viability: 101%

## CCCC(CCC)C(=O)O [Valproic acid] (3000 nM)
[1]
  normalised viability: 112%
[2]
  normalised viability: 103%
[3]
  normalised viability: 88%
[4]
  normalised viability: 104%
[5]
  normalised viability: 90%
[6]
  normalised viability: 103%
